± gives the standard deviation of the averaged measurements.
Experiments:
Test in all cases: level (log10 ratio to DMSO vehicle control); higher = higher biomarker level / cell amount than vehicle control
Conditions in all cases: in DMSO
[1] = compound: FC(F)(F)C(F)(F)C(F)(F)C(F)(F)C(F)(F)C(F)(F)C(F)(F)C(F)(F)CCS [2-(Perfluorooctyl)ethanthiol]
Method: (§1)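 BioMAP Diversity Plus panel of 12 human primary cell co-culture systems (3C, 4H, LPS, SAg, BT, BF4T, BE3C, CASM3C, HDF3CGF, KF3CT, MyoF, Mphg). Compounds were added 1 h before stimulation and left for 24 h (MyoF 48 h; BT 72 h for soluble read-outs or 6 d for IgG). Biomarkers were read by ELISA, cytotoxicity by SRB, PBMC viability and proliferation by Alamar Blue. Each well value was divided by the mean of 8 DMSO control wells on the same plate and log10 transformed; duplicate blinded samples were tested at 4 concentrations.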

[2] = compound: O=C(O)C(F)(F)C(F)(F)OC(F)(F)F [Perfluoro-3-methoxypropanoic acid]
Method: as §1

[3] = compound: FC(F)(F)C(F)(C(F)(F)F)C(F)(F)C(F)(F)CC1CO1 [3-(Perfluoro-3-methylbutyl)-1,2-propenoxide]
Method: as §1

[4] = compound: O=C(O)C(F)(F)C(F)(F)C(F)F [4H-Perfluorobutanoic acid]
Method: as §1

Perfluoropentanoic acid = compound: O=C(O)C(F)(F)C(F)(F)C(F)(F)C(F)(F)F [Perfluoropentanoic acid]
Method: as §1

Perfluoroheptanoic acid = compound: O=C(O)C(F)(F)C(F)(F)C(F)(F)C(F)(F)C(F)(F)C(F)(F)F [Perfluoroheptanoic acid]
Method: as §1

[5] = compound: OCC(F)(F)OC(F)(F)C(F)(F)OC(F)(F)CO [1H,1H,8H,8H-Perfluoro-3,6-dioxaoctane-1,8-diol]
Method: as §1

Test System | level (log10) ([1]; 6700 nM) | level (log10) ([1]; 20000 nM) | level (log10) ([2]; 6700 nM) | level (log10) ([2]; 20000 nM) | level (log10) ([2]; 60000 nM) | level (log10) ([3]; 6700 nM) | level (log10) ([3]; 20000 nM) | level (log10) ([4]; 6700 nM) | level (log10) ([4]; 20000 nM) | level (log10) ([4]; 60000 nM) | level (log10) (Perfluoropentanoic acid; 6700 nM) | level (log10) (Perfluoropentanoic acid; 20000 nM) | level (log10) (Perfluoropentanoic acid; 60000 nM) | level (log10) (Perfluoroheptanoic acid; 6700 nM) | level (log10) (Perfluoroheptanoic acid; 20000 nM) | level (log10) (Perfluoroheptanoic acid; 60000 nM) | level (log10) ([5]; 6700 nM) | level (log10) ([5]; 20000 nM) | level (log10) ([5]; 60000 nM)
lMphg:IL-1alpha | -0.033 ± 0.078 | -0.0355 ± 0.07 | -0.008 ± 0.03 | -0.0055 ± 0.033 | 0.0115 ± 0.005 | -0.038 ± 0.042 | 0.034 ± 0.085 | -0.0055 ± 0.0064 | -0.0355 ± 0.0064 | 0.017 ± 0.035 | -0.0095 ± 0.022 | -0.0195 ± 0.046 | 0.01 ± 0.05 | -0.0275 ± 0.042 | -0.0025 ± 0.0035 | 0.0145 ± 0.012 | -0.027 ± 0.09 | -0.036 ± 0.035 | -0.021 ± 0.018
HDF3CGF:EGFR | -0.0295 ± 0.018 | -0.018 ± 0.04 | -0.002 ± 0.0085 | 0.003 ± 0.0085 | 0.0165 ± 0.029 | -0.015 ± 0.0028 | 0.0035 ± 0.023 | -0.0155 ± 0.054 | 0.0005 ± 0.019 | 0.0725 ± 0.12 | 0.008 ± 0.02 | -0.0265 ± 0.013 | -0.008 ± 0.027 | -0.008 ± 0.016 | 0.004 ± 0.0028 | 0.01 ± 0.023 | 0.0035 ± 0.013 | 0.0175 ± 0.025 | 0.0205 ± 0.054
MyoF:Decorin | -0.0145 ± 0.018 | -0.0105 ± 0.033 | 0.005 ± 0.017 | 0.0085 ± 0.0078 | 0.0085 ± 0.03 | 0.0025 ± 0.029 | 0.026 ± 0.042 | -0.005 ± 0.048 | 0.003 ± 0.064 | 0.0655 ± 0.088 | -0.015 ± 0.0028 | -0.0125 ± 0.0092 | 0.005 ± 0.048 | -0.0015 ± 0.013 | 0.036 ± 0.0042 | 0.0505 ± 0.035 | -0.0155 ± 0.011 | 0.003 ± 0.0071 | 0.02 ± 0.02
KF3CT:SRB | -0.0015 ± 0.0021 | 0.002 ± 0.0042 | -0.0145 ± 0.0035 | -0.009 ± 0.0014 | -0.002 ± 0.013 | -0.004 ± 0.0042 | -0.0085 ± 0.0064 | -0.005 ± 0.0071 | -0.0065 ± 0.0064 | -0.008 ± 0.0014 | -0.007 ± 0.0071 | -0.004 ± 0.0014 | 0.0055 ± 0.011 | -0.0065 ± 0.005 | -0.006 ± 0.0085 | 0.007 ± 0.016 | -0.002 ± 0.0057 | -0.0025 ± 0.0021 | 0.0075 ± 0.023
MyoF:alpha-SM Actin | -0.0145 ± 0.036 | -0.103 ± 0.037 | 0.0015 ± 0.00071 | 0.011 ± 0.035 | 0.039 ± 0.0028 | -0.009 ± 0.028 | -0.0295 ± 0.0064 | -0.0335 ± 0.047 | -0.0245 ± 0.049 | -0.026 ± 0.034 | 0.0265 ± 0.07 | 0.0355 ± 0.052 | 0.0485 ± 0.044 | -0.028 ± 0.035 | -0.0365 ± 0.022 | -0.022 ± 0.024 | 0.003 ± 0.0057 | 0.013 ± 0.017 | 0.004 ± 0.018
KF3CT:CXCL10/IP-10 | -0.025 ± 0.0042 | -0.01 ± 0.0057 | 0.011 ± 0.023 | 0.027 ± 0.034 | 0.03 ± 0.016 | -0.009 ± 0.016 | -0.026 ± 0.014 | -0.007 ± 0.016 | -0.0035 ± 0.016 | 0.01 ± 0.0042 | 0.002 ± 0.0042 | -0.0085 ± 0.0035 | 0.0025 ± 0.016 | -0.003 ± 0.018 | 0.0125 ± 0.026 | 0.0155 ± 0.023 | 0.0025 ± 0.005 | -0.001 ± 0.0028 | 0.004 ± 0.0028
3C:CD106/VCAM-1 | -0.016 ± 0.027 | -0.0105 ± 0.036 | -0.0015 ± 0.0064 | -0.009 ± 0.024 | 0.0015 ± 0.018 | -0.0275 ± 0.019 | -0.0005 ± 0.013 | -0.0075 ± 0.04 | -0.0265 ± 0.005 | 0.006 ± 0.0028 | 0.002 ± 0.023 | -0.0055 ± 0.021 | 0.0235 ± 0.015 | 0.0165 ± 0.018 | -0.02 ± 0.0042 | -0.003 ± 0.014 | -0.0365 ± 0.021 | -0.0295 ± 0.019 | -0.016 ± 0.024
KF3CT:IL-1alpha | -0.0065 ± 0.026 | -0.009 ± 0.0042 | 0.0455 ± 0.005 | 0.01 ± 0.0042 | 0.0225 ± 0.00071 | -0.0105 ± 0.013 | -0.0065 ± 0.015 | 0.001 ± 0.05 | -0.0055 ± 0.005 | 0.0075 ± 0.06 | -0.004 ± 0.017 | 0.004 ± 0.0028 | -0.0115 ± 0.021 | -0.007 ± 0.018 | 0.016 ± 0.014 | -0.0115 ± 0.0064 | -0.029 ± 0.045 | -0.013 ± 0.014 | 0.013 ± 0.023
CASM3C:CD141/Thrombomodulin | -0.034 ± 0.048 | -0.0065 ± 0.09 | -0.003 ± 0.0028 | -0.014 ± 0.0099 | 0.021 ± 0.04 | 0.003 | 0 ± 0.044 | -0.0005 ± 0.016 | 0 ± 0.081 | -0.0145 ± 0.028 | -0.0065 ± 0.016 | -0.0135 ± 0.035 | 0.0105 ± 0.005 | -0.0085 ± 0.025 | 0.0065 ± 0.0064 | 0.011 ± 0.033 | -0.0045 ± 0.0021 | 0.0035 ± 0.005 | 0.001 ± 0.016
lMphg:CD62E/E-Selectin | -0.013 ± 0.013 | -0.0295 ± 0.011 | -0.012 ± 0.018 | -0.037 ± 0.03 | 0.019 ± 0.075 | 0.0085 ± 0.019 | 0.0025 ± 0.013 | -0.012 ± 0.0028 | 0.0025 ± 0.0092 | 0.0145 ± 0.0064 | 0.012 ± 0.0057 | -0.008 ± 0.014 | 0.003 ± 0.042 | -0.026 ± 0.0028 | 0 ± 0.024 | 0.025 ± 0.018 | -0.0235 ± 0.019 | 0.004 ± 0.033 | -0.003 ± 0.03
CASM3C:CD142/Tissue Factor | -0.0015 ± 0.13 | -0.0415 ± 0.07 | -0.022 ± 0.027 | -0.0145 ± 0.04 | -0.0025 ± 0.037 | -0.038 ± 0.047 | -0.033 ± 0.014 | 0.0045 ± 0.14 | -0.039 ± 0.093 | -0.0415 ± 0.037 | -0.002 ± 0.0071 | -0.013 ± 0.024 | -0.0225 ± 0.056 | -0.0065 ± 0.012 | 0.015 ± 0.016 | 0.015 ± 0.071 | -0.014 ± 0.0099 | -0.013 ± 0.023 | 0.0165 ± 0.0064

Reference: the supplement of paper PMC10331698
